Experiments:
[1] = Metabolites in rat liver microsomes (systems I-rat, II-rat); type: in vitro ADME, Sprague-Dawley rat
Protocol: Then, NADPH-B (10 μl) was added and incubated for 2 h. […] Then, UDPGA (50 μl) was added and incubated for 2 h. […] Then, UDPGA (50 μl) was added and incubated for 2 h. In addition, the naringenin solution (1 mM, 10 μl) was evaluated in rat systems I, II, and III as above.
(§1) The incubated solution (500 μl) of systems I-rat, II-rat, III-rat, I-human, and II-human were extracted with ethyl acetate (500 μl) for at least 3 min by vortexing and centrifuged for 10 min at 13,000 rpm and 4°C. The extraction process described above was performed twice and all supernatants were transferred into centrifuge tubes, dried with N2, and dissolved with methanol-water (1:1, v/v). All samples were injected into a UPLC/Q-TOF-MS system consisting of a Waters Acquity ultra performance liquid chromatography (UPLC) coupled with a Micromass micro™ quadrupole time-of-flight mass spectrometry (Q-TOF-MS) system (Waters Corp., Milford, MA, USA), equipped with an electrospray ionization source, and controlled by the MassLynx (v. 4.1) software. Separation was performed on a Waters Acquity UPLC BEH C18 column (50 mm × 2.1 mm, 1.7 μm) at 40°C. The mobile phase consisted of 0.1% formic acid (v/v) in water (A) and methanol (B) using a linear gradient of 95% to 60% A (0–25 min), 60% to 40% A (25–35 min), 40% to 10% A (35–40 min), 10% A (40–43 min), 10% to 95% A (43–44 min), and 95% A (44–45 min). The injection volume was 5 μl with flow rate of 0.2 ml min^-1. The Q-TOF-MS worked in a full scan mode (100–1,200 m/z), selection ion mode, and product ion mode, in negative ion mode, respectively. The conditions were as follows: capillary voltage 3,000 V, sample cone voltage 30 V, extraction cone voltage 2.0 V, source temperature 100°C, desolvation temperature 350°C, cone gas (N2) flow rate of 40 L/h, desolvation gas (N2) flow rate of 700 L/h, low collision energy 6.0 eV, and high collision energy 20–80 eV. Compounds were detected with accurate mass using leucine enkephalin for mass correction at 554.2615 (m/z) in negative ionization mode.

[2] = Metabolites in human liver microsomes (systems I-human, II-human); type: in vitro ADME
Protocol: Then, NADPH-B (10 μl) was added and the mixed solution incubated for 2 h. […] Next, UDPGA (50 μl) was added and the mixed solution incubated for 2 h. In addition, the naringenin solution (1 mM, 10 μl) was evaluated in human systems I and II as above.
as §1

| found in rat liver microsomes, incubation of naringenin (S) [1] | found in human liver microsomes, incubation of naringenin (S) [2] | SMILES |
| --- | --- | --- |
| + | + | O=c1cc(-c2ccc(O)cc2)oc2cc(O)cc(O)c12 [M6, Apigenin] |
| + | + | O=C1C[C@@H](c2ccc(O)c(O)c2)Oc2cc(O)cc(O)c21 [M7, Eriodictyol] |
| + | – | COc1ccc([C@@H]2CC(=O)c3c(O)cc(O)cc3O2)cc1O [M8, Hesperetin] |
